In US20220289691A1, “5-AMINO-SUBSTITUTED PYRAZOLES AND TRIAZOLES AS PEST CONTROL AGENTS” (Bayer Aktiengesellschaft, priority 2019, published 2022) one finds pest or weed control data, which are given here for 27 compounds.

Holding throughout (type): in vivo
One experiment has as its system Diabrotica balteata. The experiment can be described thus: Diabrotica balteata spray test. Conditions: 168 h, beetle larvae on wheat, after 7 days, read-out: efficacy (wheat plant growth); for pest or weed control at 100 g/ha: 100 g/ha (=32 μg/cavity); for pest or weed control at 500 g/ha: 500 g/ha (=160 μg/cavity). The method, then: Diabrotica balteata—Spray Test Solvent: 78 parts by weight of acetone • • 1.5 parts by weight of dimethylformamide Emulsifier: alkylaryl polyglycol ether
(§1) To produce a suitable active compound formulation, 1 part by weight of active compound is dissolved using the stated parts by weight of solvent and made up with water containing an emulsifier concentration of 1000 ppm until the desired concentration is attained. To produce further test concentrations, the formulation is diluted with emulsifier-containing water.
Pre-swollen wheat grains (Triticum aestivum) are incubated in a multiwell plate filled with agar and a little water for one day (5 seed grains per cavity). The germinated wheat grains are sprayed with an active compound formulation of the desired concentration. Subsequently, each cavity is infected with 10-20 beetle larvae of Diabrotica balteata.
After 7 days, the efficacy in % is determined. 100% means that all wheat plants have grown as in the untreated, uninfected control; 0% means that no wheat plant has grown.

In the next experiment the test system is Meloidogyne incognita. The experiment can be described thus: Meloidogyne incognita test. Conditions: 336 h, lettuce, after 14 days, read-out: nematicidal efficacy (formation of galls). On the procedure: Meloidogyne incognita Test Solvent: 125.0 parts by weight of acetone
To produce a suitable active compound formulation, 1 part by weight of active compound is mixed with the stated amount of solvent and the concentrate is diluted to the desired concentration with water.
Vessels are filled with sand, active compound solution, an egg/larvae suspension of the southern root-knot nematode (Meloidogyne incognita) and lettuce seeds. The lettuce seeds germinate and the plants develop. The galls develop on the roots.
After 14 days, the nematicidal efficacy in % is determined by the formation of galls. 100% means that no galls were found; 0% means that the number of galls on the treated plants corresponds to the untreated control.

Another experiment relates to Spodoptera frugiperda. The experiment can be described thus: Spodoptera frugiperda spray test. The following applies: foliar, 168 h, maize leaf discs, after 7 days, read-out: efficacy (caterpillars killed). The essentials: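 Compound was dissolved in acetone/dimethylformamide and diluted with water containing 1000 ppm alkylaryl polyglycol ether emulsifier to test concentrations. Maize leaf discs were sprayed, dried and infested with fall armyworm caterpillars. Efficacy (% caterpillars killed) was scored after 7 days.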

In a further experiment the test system is Ctenocephalides felis. The experiment can be described thus: Ctenocephalides felis oral test. The following applies: 48 h, 100 ppm in citrated cattle blood, adult cat fleas, after 2 days, read-out: efficacy (kill). The method, then:
Ctenocephalides felis—Oral Test
Solvent: Dimethyl Sulfoxide
To produce a suitable active compound formulation, 10 mg of active compound are mixed with 0.5 ml of dimethyl sulfoxide. Dilution with citrated cattle blood gives the desired concentration.
About 20 unfed adult cat fleas (Ctenocephalides felis) are placed into a chamber which is closed at the top and bottom with gauze. A metal cylinder whose bottom end is closed with parafilm is placed onto the chamber. The cylinder contains the blood/active compound formulation, which can be imbibed by the fleas through the parafilm membrane.
After 2 days, the kill in % is determined. 100% means that all of the fleas have been killed; 0% means that none of the fleas have been killed.

Another experiment relates to Phaedon cochleariae. The experiment can be described thus: Phaedon cochleariae spray test. Conditions: foliar, 168 h, Chinese cabbage leaf discs, after 7 days, read-out: efficacy (beetle larvae killed). On the procedure: Phaedon cochleariae—Spray Test Solvent: 78.0 parts by weight of acetone • • 1.5 parts by weight of dimethylformamide Emulsifier: alkylaryl polyglycol ether
as §1
Discs of Chinese cabbage leaves (Brassica pekinensis) are sprayed with an active compound formulation of the desired concentration and, after drying, populated with larvae of the mustard beetle (Phaedon cochleariae).
After 7 days, the efficacy in % is determined. 100% means that all the beetle larvae have been killed; 0% means that no beetle larvae have been killed.

Regarding `CC(C)c1ccccc1N1C(=O)CSC1=NN=Cc1ccc(-c2nc(N)n(-c3ccc(OC(F)(F)F)cc3)n2)cc1` [Compound I-056], the pest or weed control at 100 g/ha in the experiment on Diabrotica balteata and in the experiment on Spodoptera frugiperda was 100% each time. For the same compound, the pest or weed control at 500 g/ha with Diabrotica balteata was 100%. The pest or weed control at 20 ppm with Meloidogyne incognita amounted to 90%.

Turning to `CCNc1nc(-c2ccc(C=NN=C3SCC(=O)N3c3ccccc3C(C)C)cc2)nn1-c1ccc(OC(F)(F)F)cc1` [Compound I-047], the pest or weed control at 20 ppm in the experiment with Meloidogyne incognita stood at 90%.

Take `CCC(=O)Nc1nc(-c2ccc(C(C)=NNC(=S)Nc3ccccc3C(C)C)cc2)nn1-c1ccc(OC(F)(F)F)cc1` [Compound I-016]: the pest or weed control at 100 ppm with Ctenocephalides felis is 95%. The pest or weed control at 100 g/ha in the experiment on Phaedon cochleariae and in the experiment with Spodoptera frugiperda was 100% in each case.

With `CC(C)Nc1nc(-c2ccc(C=NN=C3SCC(=O)N3c3ccccc3C(C)C)cc2)nn1-c1ccc(OC(F)(F)F)cc1` [Compound I-048], in the experiment on Meloidogyne incognita, the pest or weed control at 20 ppm was found to be 90%.

`CC(=O)Nc1nc(-c2ccc(C=NNC(=S)Nc3ccccc3C)cc2)nn1-c1ccc(OC(F)(F)F)cc1` [Compound I-010]: the pest or weed control at 100 ppm in the experiment on Ctenocephalides felis turned out to be 100%. Moreover, the pest or weed control at 100 g/ha with Phaedon cochleariae and in the experiment with Spodoptera frugiperda was 100% in each case.

As to `CO[C@@H]1[C@@H](OC)[C@H](C)O[C@@H](OC(=O)Nc2ccc(-c3nc(NC(=O)C4CC4)n(-c4ccc(OC(F)(F)C(F)(F)F)cc4)n3)cc2)[C@@H]1OC` [Compound I-004], the pest or weed control at 100 g/ha in the experiment on Phaedon cochleariae amounted to 100%. Further, the pest or weed control at 500 g/ha was found to be 100% in the experiment with Phaedon cochleariae (500 g/ha) and 83% with Spodoptera frugiperda (500 g/ha).

As for `COC(CCNc1nc(-c2ccc(C=NNC(=S)Nc3ccccc3C(C)C)cc2)nn1-c1ccc(OC(F)(F)F)cc1)OC` [Compound I-082], the pest or weed control at 100 g/ha in the experiment with Diabrotica balteata and in the experiment on Spodoptera frugiperda was 100% each time.

Turning to `COCCCNc1nc(-c2ccc(C=NNC(=S)Nc3ccccc3C(C)C)cc2)nn1-c1ccc(OC(F)(F)F)cc1` [Compound I-073], the pest or weed control at 100 g/ha in the experiment with Diabrotica balteata and with Spodoptera frugiperda was 100% throughout.

For the compound `CNc1nc(-c2ccc(C=NN=C3SCC(=O)N3c3ccccc3C(C)C)cc2)nn1-c1ccc(OC(F)(F)C(F)(F)F)cc1` [Compound I-064], in the experiment on Diabrotica balteata, the pest or weed control at 100 g/ha stood at 100% and the pest or weed control at 500 g/ha amounted to 100%. Besides, the pest or weed control at 100 g/ha in the experiment on Spodoptera frugiperda worked out at 100%.

Consider `CNc1nc(-c2ccc(C=NN=C3SCCN3c3ccccc3C(C)C)cc2)nn1-c1ccc(OC(F)(F)F)cc1` [Compound I-091], for which the pest or weed control at 100 g/ha in the experiment on Diabrotica balteata amounted to 100%; in the experiment on Spodoptera frugiperda, 83%.

For the compound `CNc1nc(-c2ccc(C=NN3CCCSC3=Nc3ccccc3C(C)C)cc2)nn1-c1ccc(OC(F)(F)C(F)(F)F)cc1` [Compound I-125, 3-{4-[({2-[(2-isopropylphenyl)imino]-1,3-thiazinan-3-yl}imino)methyl]phenyl}-N-methyl-1-[4-(pentafluoroethoxy)phenyl]-1H-1,2,4-triazol-5-amine], the pest or weed control at 100 g/ha in the experiment on Diabrotica balteata and in the experiment on Spodoptera frugiperda was 100% each time.

Take `CC(C)Nc1nc(-c2ccc(NC(=O)N=C3SCC(=O)N3c3ccccc3C(C)C)cc2)nn1-c1ccc(OC(F)(F)F)cc1` [Compound I-043]: in the experiment with Diabrotica balteata, the pest or weed control at 100 g/ha stood at 100% and the pest or weed control at 500 g/ha was found to be 100%. In addition, in the experiment with Spodoptera frugiperda, the pest or weed control at 100 g/ha was 100%.

As to `CC(C)c1ccccc1N1C(=O)CSC1=NC(=O)Nc1ccc(-c2nc(NC(=O)C(F)F)n(-c3ccc(OC(F)(F)F)cc3)n2)cc1` [Compound I-038], the pest or weed control at 100 g/ha was determined as 80% with Diabrotica balteata and 100% in the experiment on Spodoptera frugiperda. Moreover, the pest or weed control at 500 g/ha in the experiment with Diabrotica balteata was 100%.

Turning to `CC(=O)Nc1nc(-c2ccc(C(C)=NNC(=S)Nc3c(C)cccc3C)cc2)nn1-c1ccc(OC(F)(F)F)cc1` [Compound I-015], in the experiment with Ctenocephalides felis, the pest or weed control at 100 ppm was 100%. Moreover, the pest or weed control at 100 g/ha with Phaedon cochleariae came to 83%; with Spodoptera frugiperda it was 100%.

As for `CC(C)c1ccccc1N1C(=O)CSC1=NN=Cc1ccc(-c2nc(NC3CC3)n(-c3ccc(OC(F)(F)F)cc3)n2)cc1` [Compound I-058], in the experiment with Diabrotica balteata, the pest or weed control at 100 g/ha worked out at 100% and the pest or weed control at 500 g/ha is 100%. Also, in the experiment with Spodoptera frugiperda, the pest or weed control at 100 g/ha stood at 100%.

As for `CC(=O)Nc1nc(-c2ccc(C(C)=NNC(=S)Nc3ccccc3C)cc2)nn1-c1ccc(OC(F)(F)F)cc1` [Compound I-014], the pest or weed control at 100 ppm with Ctenocephalides felis was 80%. For the same compound, the pest or weed control at 100 g/ha in the experiment with Phaedon cochleariae and in the experiment with Spodoptera frugiperda was 100% each time.

Turning to `CC(C)c1ccccc1NC(=S)NN=Cc1ccc(-c2nc(NCCC#N)n(-c3ccc(OC(F)(F)F)cc3)n2)cc1` [Compound I-094], the pest or weed control at 100 g/ha in the experiment on Diabrotica balteata and in the experiment with Spodoptera frugiperda was 100% in each case.

Take `CCOC(CNc1nc(-c2ccc(C=NN=C3SCC(=O)N3c3ccccc3C(C)C)cc2)nn1-c1ccc(OC(F)(F)F)cc1)OCC` [Compound I-085]: the pest or weed control at 100 g/ha came to 80% with Diabrotica balteata and 100% with Spodoptera frugiperda.

Turning to `CNc1nc(-c2c(F)cc(C=NNC(=S)Nc3ccccc3C(C)C)cc2F)nn1-c1ccc(OC(F)(F)F)cc1` [Compound I-120], the pest or weed control at 100 g/ha with Diabrotica balteata and in the experiment on Spodoptera frugiperda was 100% in each case.

For the compound `CC(C)c1ccccc1NC(=S)NN=Cc1ccc(-c2nc(NC(=O)C3CC3)n(-c3ccc(OC(F)(F)F)cc3)n2)cc1` [Compound I-013], the pest or weed control at 100 ppm in the experiment on Ctenocephalides felis turned out to be 100%. Besides, the pest or weed control at 100 g/ha in the experiment on Phaedon cochleariae and with Spodoptera frugiperda was 100% each time.

Turning to `CCC(=O)Nc1nc(-c2ccc(C=NNC(=S)Nc3ccccc3C(C)C)cc2)nn1-c1ccc(OC(F)(F)F)cc1` [Compound I-012], the pest or weed control at 100 g/ha in the experiment with Phaedon cochleariae and in the experiment on Spodoptera frugiperda was 100% each time.

On to `C=CCNc1nc(-c2ccc(NC(=O)N=C3SCC(=O)N3c3ccccc3C(C)C)cc2)nn1-c1ccc(OC(F)(F)F)cc1` [Compound I-086], for which the pest or weed control at 100 g/ha in the experiment with Diabrotica balteata and in the experiment on Spodoptera frugiperda was 100% throughout.

In the case of `CNc1nc(-c2ccc(C=NN=C3SCCC(=O)N3c3ccccc3C(C)C)cc2)nn1-c1ccc(OC(F)(F)F)cc1` [Compound I-113], the pest or weed control at 100 g/ha in the experiment with Diabrotica balteata and in the experiment on Spodoptera frugiperda was 100% in each case.

Consider `CNc1nc(-c2ccc(/C=N/NC(=S)Nc3ccccc3C(C)C)c(Cl)c2)nn1-c1ccc(OC(F)(F)F)cc1` [Compound I-114], for which the pest or weed control at 100 g/ha in the experiment on Diabrotica balteata and in the experiment on Spodoptera frugiperda was 100% throughout.

In the case of `CC(C)c1ccccc1N1C(=O)CSC1=NC(=O)Nc1ccc(-c2nc(N)n(-c3ccc(OC(F)(F)C(F)(F)F)cc3)n2)cc1` [Compound I-055], in the experiment on Diabrotica balteata, the pest or weed control at 100 g/ha is 80% and the pest or weed control at 500 g/ha came out at 100%. In the experiment with Spodoptera frugiperda, the pest or weed control at 100 g/ha stood at 100%.

Take `CNc1nc(-c2ccc(C=NN3CCCSC3=Nc3ccccc3C(C)C)cc2)nn1-c1ccc(OC(F)(F)F)cc1` [Compound I-102]: the pest or weed control at 100 g/ha in the experiment with Diabrotica balteata and with Spodoptera frugiperda was 100% in each case.

On to `CC(C)c1ccccc1NC(=S)NN=Cc1ccc(-c2nc(NC3COC3)n(-c3ccc(OC(F)(F)F)cc3)n2)cc1` [Compound I-049], for which, in the experiment on Diabrotica balteata, the pest or weed control at 100 g/ha was found to be 100% and the pest or weed control at 500 g/ha was found to be 100%. Further, the pest or weed control at 100 g/ha with Spodoptera frugiperda was 100%.
